Source: patent US20240239854A1, “ANTIMICROBIAL PEPTIDES AND MODIFICATIONS THEREOF” (Donald Danforth Plant Science Center, priority 2022, published 2024)
No end group written: not given here.

Tests used:
Assay type in all cases: cell-based
[1] = test system: Zymoseptoria tritici IPO323
Botrytis cinerea T4 = test system: Botrytis cinerea T4
[2] = test system: Fusarium graminearum PH-1; settings: for F. graminearum PH-1 MIC Day1: MIC Day 1, 96-well plate, resazurin cell viability

PD102.1.1: Cajanus cajan wild-type defensin SEQ ID NO: 628 with N-terminal alanine, expressed in Pichia pastoris (AVCSKPSTYFFGPCVRRSTCRRACSHENYPDGKCSRFLGKCICYKPCTT; cysteine pairing not given here; also: N-terminal alanine added, unclear whether it is the first A of the chain)
Z. tritici IPO323 MIC Day 1 [1]: 1 µM
Z. tritici IPO323 MIC Day 7 [1]: 1.5 µM
Z. tritici IPO323 MIC Day 14 [1]: 2.5 µM
B. cinerea T4 MIC Day1 (Botrytis cinerea T4): 1.25 µM
F. graminearum PH-1 MIC Day1 [2]: 1.5 µM

PD103.1.1: Eucalyptus grandis wild-type defensin SEQ ID NO: 633 with N-terminal alanine, expressed in Pichia pastoris (ATCRKPSMYFSGACFSRTNCQKACNREDWPNGKCLVGFKCFCQRPC; cysteine pairing not given here; also: N-terminal alanine added, unclear whether it is the first A of the chain; listed as Eucalyptus grandis)
Z. tritici IPO323 MIC Day 1 [1]: 1.25 µM
Z. tritici IPO323 MIC Day 7 [1]: 1.25 µM
Z. tritici IPO323 MIC Day 14 [1]: 3 µM
B. cinerea T4 MIC Day1 (Botrytis cinerea T4): 1.75 µM
F. graminearum PH-1 MIC Day1 [2]: 2.5 µM

PD104.1.1: Eucalyptus grandis wild-type defensin SEQ ID NO: 637 with N-terminal alanine, expressed in Pichia pastoris (AICKKPSKFFKGACGRDADCEKACDQENWPGGVCVPFLRCECQRSC; cysteine pairing not given here; also: N-terminal alanine added, unclear whether it is the first A of the chain; listed as Eucalyptus grandis)
Z. tritici IPO323 MIC Day 1 [1]: >12 µM
Z. tritici IPO323 MIC Day 7 [1]: >12 µM
Z. tritici IPO323 MIC Day 14 [1]: >12 µM
B. cinerea T4 MIC Day1 (Botrytis cinerea T4): >12 µM
F. graminearum PH-1 MIC Day1 [2]: >12 µM

PD106.1.1: Eucalyptus grandis wild-type defensin SEQ ID NO: 645 with N-terminal alanine, expressed in Pichia pastoris (ANCAKPSKFYRGPCFNSISVKPCTQRCSQENWPIGVCTKDLRCECQRPC; cysteine pairing not given here; also: N-terminal alanine added, unclear whether it is the first A of the chain; listed as Eucalyptus grandis)
Z. tritici IPO323 MIC Day 1 [1]: 0.375 µM
Z. tritici IPO323 MIC Day 7 [1]: 1.5 µM
Z. tritici IPO323 MIC Day 14 [1]: 2.5 µM
B. cinerea T4 MIC Day1 (Botrytis cinerea T4): 1 µM
MIC, in-vitro antifungal activity against B. cinerea (Botrytis cinerea T4; 48 hours): 1 µM
MIC, in-vitro antifungal activity against F. graminearum ([2]; F. graminearum PH-1, 48 hours): 0.75 µM
F. graminearum PH-1 MIC Day1 [2]: 0.75 µM

PD108.1.1: Fragaria x anannasa wild-type defensin SEQ ID NO: 653 with N-terminal alanine, expressed in Pichia pastoris (KTCESPSAKFEGPCIMGSNCALTCQKEGHDGGFCRDFWLPKCFCTKPC; N-terminal alanine added; Fragaria X ananassa)
Z. tritici IPO323 MIC Day 1 [1]: >12 µM
Z. tritici IPO323 MIC Day 7 [1]: >12 µM
Z. tritici IPO323 MIC Day 14 [1]: >12 µM
B. cinerea T4 MIC Day1 (Botrytis cinerea T4): >12 µM
F. graminearum PH-1 MIC Day1 [2]: >12 µM

PD113.1.1: Gossypium hirsutum wild-type defensin SEQ ID NO: 674 with N-terminal alanine, expressed in Pichia pastoris (GPTIVGGRKCKSPSKKFNGMCMNHVNCATVCQTESHEDGKCEGFYRRCICIKPCF; N-terminal alanine added; listed as Gossypium hirsutum)
Z. tritici IPO323 MIC Day 1 [1]: 4 µM
Z. tritici IPO323 MIC Day 7 [1]: 12 µM
Z. tritici IPO323 MIC Day 14 [1]: >12 µM
B. cinerea T4 MIC Day1 (Botrytis cinerea T4): 6 µM
F. graminearum PH-1 MIC Day1 [2]: 6 µM

PD115.1.1: Lupinus albus wild-type defensin SEQ ID NO: 683 with N-terminal alanine, expressed in Pichia pastoris (NNCKYESNKFHGVCLSDTNCESVCQTEGFPFGKCDGVLPRTCVCKKPC; N-terminal alanine added; listed as Lupinus albus)
Z. tritici IPO323 MIC Day 1 [1]: >12 µM
Z. tritici IPO323 MIC Day 7 [1]: >12 µM
Z. tritici IPO323 MIC Day 14 [1]: >12 µM
B. cinerea T4 MIC Day1 (Botrytis cinerea T4): >12 µM
F. graminearum PH-1 MIC Day1 [2]: >12 µM

PD117.1.1: Manihot esculenta wild-type defensin SEQ ID NO: 692 with N-terminal alanine, expressed in Pichia pastoris (RICVKPEPLAHCTETICTQFCIRKYGPPPGTVGKCNLPPGFCTCYHNC; N-terminal alanine added; listed as Manihot esculenta)
Z. tritici IPO323 MIC Day 1 [1]: >12 µM
Z. tritici IPO323 MIC Day 7 [1]: >12 µM
Z. tritici IPO323 MIC Day 14 [1]: >12 µM
B. cinerea T4 MIC Day1 (Botrytis cinerea T4): >12 µM
F. graminearum PH-1 MIC Day1 [2]: >12 µM

PD118.1.1: Malus domestica wild-type defensin SEQ ID NO: 697 with N-terminal alanine, expressed in Pichia pastoris (KICEFPSTLFKGLCFSSNNCKHTCRKEQFTRGKCSLLTRTCMCTKKC; N-terminal alanine added; listed as Malus domestica)
Z. tritici IPO323 MIC Day 1 [1]: 1.5 µM
Z. tritici IPO323 MIC Day 7 [1]: 2 µM
Z. tritici IPO323 MIC Day 14 [1]: 3 µM
B. cinerea T4 MIC Day1 (Botrytis cinerea T4): 1.5 µM
F. graminearum PH-1 MIC Day1 [2]: 1.5 µM

PD119.1.1: Setaria italica wild-type defensin SEQ ID NO: 702 with N-terminal alanine, expressed in Pichia pastoris (RHCLSQSHTFKGLCFSSENCASVCKSEKFPGGQCQMHGASRKCFCKVVC; N-terminal alanine added; listed as Setaria italica)
Z. tritici IPO323 MIC Day 1 [1]: 2.5 µM
Z. tritici IPO323 MIC Day 7 [1]: 6 µM
Z. tritici IPO323 MIC Day 14 [1]: 12 µM
B. cinerea T4 MIC Day1 (Botrytis cinerea T4): 4.5 µM
F. graminearum PH-1 MIC Day1 [2]: 1.5 µM

PD121.1.1: Setaria italica wild-type defensin SEQ ID NO: 711 with N-terminal alanine, expressed in Pichia pastoris (RHCLSQSHHFKGLCLSSSNCANVCRVERFPDGECQTTAGTRKCFCKRIC; N-terminal alanine added; listed as Setaria italica)
Z. tritici IPO323 MIC Day 1 [1]: 1 µM
Z. tritici IPO323 MIC Day 7 [1]: 4 µM
Z. tritici IPO323 MIC Day 14 [1]: 5 µM
B. cinerea T4 MIC Day1 (Botrytis cinerea T4): 2 µM
F. graminearum PH-1 MIC Day1 [2]: 1.5 µM

PD123.1.1: Striga asiatica wild-type defensin SEQ ID NO: 719 with N-terminal alanine, expressed in Pichia pastoris (RKCESKSQQFKGLCFIKANCAAVCRTEGFHSGHCRGFRRRCYCTKHC; N-terminal alanine added; listed as Striga asiatica)
Z. tritici IPO323 MIC Day 1 [1]: 3 µM
Z. tritici IPO323 MIC Day 7 [1]: 5 µM
Z. tritici IPO323 MIC Day 14 [1]: 10 µM
B. cinerea T4 MIC Day1 (Botrytis cinerea T4): 6 µM
F. graminearum PH-1 MIC Day1 [2]: 6 µM

PD124.1.1: Rubus argutus wild-type defensin SEQ ID NO: 723 with N-terminal alanine, expressed in Pichia pastoris (RICEVPSKTFIGLCFKDTNCIVRCRSEGYGYGKCSHFRRRCRCFKPCP; N-terminal alanine added; listed as Rubus argutus)
Z. tritici IPO323 MIC Day 1 [1]: 0.75 µM
Z. tritici IPO323 MIC Day 7 [1]: 3.25 µM
Z. tritici IPO323 MIC Day 14 [1]: 4 µM
B. cinerea T4 MIC Day1 (Botrytis cinerea T4): 0.75 µM
F. graminearum PH-1 MIC Day1 [2]: 2 µM
